Values after ≈ are worked out from the molar mass of the structure shown.
What was measured:
[1] = in vitro; conditions: human
[2] = molecular target: T1, SARS-CoV-2 M^Pro (Severe acute respiratory syndrome coronavirus 2, UniProt P0DTD1); experiment: biochemical
[3] = in vitro; conditions: PAMPA, pH 7.4
[4] = molecular target: T1, SARS-CoV-2 M^Pro; experiment: biochemical; remark: listed apart in the source
[5] = molecular target: SARS-CoV-1 M^Pro (Severe acute respiratory syndrome coronavirus, UniProt P0C6X7); experiment: biochemical
[6] = molecular target: T1, SARS-CoV-2 M^Pro; type: biochemical
[7] = molecular target: SARS-CoV-2 M^Pro (Cys^145) (Severe acute respiratory syndrome coronavirus 2, UniProt P0DTD1); type: binding
[8] = tested on: SARS-CoV-2 WA.1 replicon in Vero ACE2 TMPRSS2; experiment: microbe, parasite or virus in culture; type: cell-based; conditions: Severe acute respiratory syndrome coronavirus 2, Vero, read-out: Replicon replication in Vero ACE2 TMPRSS2 EC50: WA.1
[9] = tested on: SARS-CoV-2 BA.2.86.1 replicon in Vero ACE2 TMPRSS2; experiment: microbe, parasite or virus in culture; type: cell-based; conditions: Severe acute respiratory syndrome coronavirus 2, Vero, read-out: Replicon replication in Vero ACE2 TMPRSS2 EC50: BA.2.86.1
[10] = tested on: SARS-CoV-2 WA.1 (icSARS-CoV-2-mNG) in A549-ACE2^h; experiment: microbe, parasite or virus in culture; type: cell-based; conditions: Severe acute respiratory syndrome coronavirus 2, read-out: Viral replication in A549-ACE2^h EC50: WA.1
[11] = tested on: human cytochrome P450 (CYP) isoforms
[12] = in vitro; conditions: human, microsomes, pH 7.4
[13] = in vitro; conditions: mouse, microsomes, pH 7.4
[14] = in vitro; conditions: plasma
[15] = molecular target: CYP2C8 (Homo sapiens, UniProt P10632); conditions: 10 μM
[16] = male, CD-1, mouse, in vivo
[17] = in vivo
[18] = in vivo; conditions: male, CD-1, mouse; for AUC(0-t): AUClast
[19] = in vivo; conditions: mouse
[20] = physchem; conditions: pH 7.4, aqueous buffer, kinetic from dmso stock
[21] = tested on: P-gp (MDR1); experiment: in vitro; conditions: dog
[22] = tested on: HCoV Alpha 229E; experiment: organism not typed; type: cell-based, HCoV 229E; design: SI50 / SI90: unit not given beside the values
[23] = tested on: HCoV Beta OC43; experiment: microbe, parasite or virus in culture; type: cell-based; design: SI90 / SI50: unit not given beside the values
[24] = tested on: SARS-CoV-2 B.1.617.2 (delta); type: cell-based; design: SI50 / SI90: unit not given beside the values
[25] = tested on: SARS-CoV-2 BA.2 (omicron); experiment: microbe, parasite or virus in culture; type: cell-based; design: SI50 / SI90: unit not given beside the values
[26] = tested on: Huh7
[27] = tested on: Rhabdomyosarcoma
[28] = tested on: MERS-CoV EMC; experiment: microbe, parasite or virus in culture; type: cell-based; design: SI50 / SI90: unit not given beside the values
[29] = tested on: SARS-CoV Urbani; experiment: microbe, parasite or virus in culture; type: cell-based; design: SI90 / SI50: unit not given beside the values
[30] = pH 7.4, plasma protein binding (PPB)
[31] = Middle East respiratory syndrome-related coronavirus, Vero C1008
[32] = Severe acute respiratory syndrome coronavirus, Vero C1008

Sequence of CYP2C8 (P10632 whole entry): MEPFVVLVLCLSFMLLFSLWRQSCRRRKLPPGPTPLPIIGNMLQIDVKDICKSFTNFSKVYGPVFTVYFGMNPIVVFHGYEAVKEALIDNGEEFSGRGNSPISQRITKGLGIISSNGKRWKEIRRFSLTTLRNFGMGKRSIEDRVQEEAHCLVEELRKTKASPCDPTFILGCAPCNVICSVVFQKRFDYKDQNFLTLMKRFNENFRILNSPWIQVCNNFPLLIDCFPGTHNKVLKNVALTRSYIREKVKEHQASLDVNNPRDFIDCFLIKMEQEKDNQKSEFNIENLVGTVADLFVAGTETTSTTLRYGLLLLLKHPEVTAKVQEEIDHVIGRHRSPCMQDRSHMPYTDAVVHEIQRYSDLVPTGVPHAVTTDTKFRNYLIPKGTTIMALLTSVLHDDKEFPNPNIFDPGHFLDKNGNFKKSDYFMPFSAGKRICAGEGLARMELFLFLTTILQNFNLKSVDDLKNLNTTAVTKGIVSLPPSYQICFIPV

Molecule `O=C1CCN(Cc2cccs2)C(=O)N1Cc1ccc[nH]c1=O` [AVI-1084] has a CC50 [1] greater than 100000 nM and a viability at 100 µM [1] of 100%.
Work on `O=C1CCN(Cc2cc(Cl)cs2)C(=O)N1Cc1ccc[nH]c1=O` [AVI-3318] yielded an IC50 [2] of 4600 nM, a CC50 [1] greater than 100000 nM and a viability at 100 µM [1] of 88.9%.
`O=C1CCN(Cc2ccsc2)C(=O)N1Cc1ccc[nH]c1=O` [AVI-3320] gave an IC50 [2] of 23000 nM, a CC50 [1] greater than 100000 nM and a viability at 100 µM [1] of 100%.
For `O=C1CCN(Cc2csc(Cl)c2)C(=O)N1Cc1ccc[nH]c1=O` [AVI-3570], the IC50 [2] was 1500 nM, the CC50 [1] was greater than 100000 nM and the viability at 100 µM [1] was 100%.
In the case of `O=C1CCN(Cc2csc(Cl)c2)C(=O)N1c1cncc2ccccc12` [AVI-3778], the IC50 [2] is reported as 850 nM, the “M^Pro inhibition, result in words” value [2] is reported as “submicromolar potencies” and the CC50 [1] is reported as greater than 100000 nM. For the same molecule, the viability at 100 µM [1] was 95.7% and the Papp [3] was 26.4 ×10⁻⁶ cm/s.
For `O=C1CCN(Cc2cccc(Cl)c2)C(=O)N1c1cncc2ccccc12` [AVI-3779], the IC50 [2] was 660 nM, the “M^Pro inhibition, result in words” value [2] was “submicromolar potencies” and the CC50 [1] was greater than 100000 nM. It also gave a viability at 100 µM [1] of 100% and a Papp [3] of 23.9 ×10⁻⁶ cm/s.
In the case of `O=C1CCN(Cc2cccc(F)c2)C(=O)N1c1cncc2ccccc12` [AVI-3780], the IC50 [2] is reported as 800 nM, the “M^Pro inhibition, result in words” value [2] is reported as “submicromolar potencies” and the CC50 [1] is reported as greater than 100000 nM. The viability at 100 µM [1] was 100% and the Papp [3] was 19.6 ×10⁻⁶ cm/s.
Work on `O=C1CCN(Cc2cccc(Cl)c2)C(=O)N1Cc1ccc[nH]c1=O` [AVI-3993] yielded an IC50 [2] of 8500 nM.
`O=c1cc(-c2cccc(Cl)c2)[nH]c(=O)n1-c1cncc2ccccc12` [AVI-4301] gave an IC50 [2] of 6400 nM, a CC50 [1] greater than 100000 nM and a viability at 100 µM [1] of 100%. For the same molecule, the Papp [3] was 31.8 ×10⁻⁶ cm/s.
With `O=c1[nH]c(-c2cccc(Cl)c2)c(-n2nnc3ccccc32)c(=O)n1-c1cncc2ccccc12` [AVI-4303] the IC50 [2] was 300 nM, the CC50 [1] was greater than 100000 nM and the viability at 100 µM [1] was 92.3%. For the same molecule, the Papp [3] was 6.6 ×10⁻⁶ cm/s.
With `C#CCn1c(-c2cccc(Cl)c2)c(-n2nnc3ccccc32)c(=O)n(-c2cncc3ccccc23)c1=O` [AVI-4692] the IC50 [2] was 37 nM, the kinact/KI [4] was 27000 M⁻¹ s⁻¹ and the IC50 [5] was 120 nM. The “M^Pro activity after dialysis” value [6] was “activity was not regained”, the “covalent adduct by whole protein MS” value [7] was “mass shifts consistent with modification at a single site” and the EC50 [8] was 26 nM. The EC50 [9] was 27 nM, the EC50 [10] was 6.8 nM and the “CYP inhibition, result in words” value ([11]; 10 μM) was “somewhat more potent inhibitor of both CYP2C8 and CYP3A4”. The Papp [3] was 31.8 ×10⁻⁶ cm/s, the half-life [12] was greater than 2 h and the half-life [13] was greater than 2 h. It also gave a fraction unbound [14, 30] of less than 0.01.
For `C#CCn1c(C)c(-n2nnc3cc(F)c(F)cc32)c(=O)n(-c2cncc3ccccc23)c1=O` [AVI-4773], the IC50 [5] was 95 nM, the “M^Pro activity after dialysis” value [6] was “activity was not regained” and the “covalent adduct by whole protein MS” value [7] was “mass shifts consistent with modification at a single site”. For the same molecule, the EC50 [8] was 60 nM, the EC50 [9] was 49 nM and the EC50 [10] was 19 nM. The “inhibition across the CYP panel” value ([11]; human, pH 7.4) was no more than 25%, the CYP2C8 inhibition [15] was ~ 45% and the “Mouse F” value [16] was 110. For the same molecule, the “free concentration in plasma” value [16] was 4.045 µM, the AUClast ([16]; po, 50 mg/kg) was 94700 ng·h/mL and the “Plasma T½” value ([16]; po, 50 mg/kg) was 13 h. For the same molecule, the “exposure in BALF” value ([17]; mouse, po) was ~ 4400 nM, the bioavailability ([18]; F) was 110% and the MRT inf ([18]; iv, 10 mg/kg) was 2.06 h. The clearance ([18]; iv, 10 mg/kg) was 9.57 mL/min/kg, the half-life ([18]; iv, 10 mg/kg) was 1.22 h and the AUC(0-inf) ([18]; iv, 10 mg/kg, AUCINF) was 17400 ng·h/mL. It also gave an AUC(0-t) ([18]; iv, 10 mg/kg) of 17200 ng·h/mL, a Vd ([18]; iv, 10 mg/kg, Vss) of 1.18 L/kg and a bioavailability ([18]; oral bioavailability (%F)) greater than 100%. For the same molecule, the half-life ([18]; po, 50 mg/kg) was 13 h, the AUC(0-inf) ([18]; po, 50 mg/kg, AUCINF) was 273000 ng·h/mL and the AUC(0-inf) ([18]; po, 50 mg/kg, AUCinf) was 272000 ng·h/mL. For the same molecule, the AUC(0-t) ([18]; po, 50 mg/kg) was 94700 ng·h/mL, the Cmax ([18]; po, 50 mg/kg, CMax) was 14900 ng/mL and the Cmax ([18]; po, 50 mg/kg, Cmax) was 14900 ng/mL. The Tmax ([18]; po, 50 mg/kg, TMax) was 0.5 h, the Tmax ([18]; po, 50 mg/kg, Tmax) was 0.5 h and the Kp [19] was roughly 0.08. It also gave a solubility [20] of 431 µM (≈ 192 µg/mL), a half-life [12] greater than 2 h and a half-life [13] greater than 2 h. For the same molecule, the fraction unbound ([14]; pH 7.4, PPB) was 0.19, the fraction unbound [14, 30] was 0.17 and the Papp B→A ([21]; MDCK-MDR1) was 70.8 ×10⁻⁶ cm/s. It also gave a Papp A→B ([21]; MDCK-MDR1, MDCK AB) of 17.8 ×10⁻⁶ cm/s.
Work on `O=c1nc(NO)ccn1[C@@H]1O[C@H](CO)[C@@H](O)[C@H]1O` [EIDD-1931, reference compound] yielded an SI50 [22] greater than 23, an SI90 [22] greater than 27 and an EC50 ([22]; read-out: EC50) of 440 nM. The EC90 ([22]; read-out: EC90) was 370 nM, the SI50 [23] was 170 and the SI90 [23] was 190. The EC50 ([23]; read-out: EC50) was 35 nM, the EC90 ([23]; read-out: EC90) was 32 nM and the EC50 [24] was 170 nM. For the same molecule, the EC90 [24] was 50 nM, the SI50 [24] was 210 and the SI90 [24] was 720. It also gave an SI50 [25] of 810, an SI90 [25] of 1000 and an EC50 ([25]; read-out: EC50) of 53 nM. It also gave an EC90 ([25]; read-out: EC90) of 43 nM, a CC50 [26] greater than 10000 nM and a CC50 [27] of 6100 nM.
For `Cn1cnc(Cn2c(=O)[nH]/c(=N\c3cc4cn(C)nc4cc3Cl)n(Cc3cc(F)c(F)cc3F)c2=O)n1` [ensitrelvir, reference compound], the “Brain, Mean” value ([17]; CD1, mouse) was 47.9 ng/g.
Work on `CCC(CC)COC(=O)[C@H](C)N[P@](=O)(OC[C@H]1O[C@@](C#N)(c2ccc3c(N)ncnn23)[C@H](O)[C@@H]1O)Oc1ccccc1` [remdesivir, reference compound] yielded an SI50 [28] of 540, an SI90 [28] of 51 and an EC50 [28, 31] of 3.7 nM. It also gave an EC90 [28, 31] of 39 nM, an SI50 [29] greater than 83 and an SI90 [29] greater than 71. It also gave an EC50 [29, 32] of 120 nM and an EC90 [29, 32] of 140 nM.
